According to patent publication US12590071B2, “Hydrazone derivative in which terminal amine group is substituted with aryl group or heteroaryl group, and use thereof” (KOREA INSTITUTE OF SCIENCE AND TECHNOLOGY, priority 2018, dated 2026):

Assays:
[1] = Liver microsomal stability (dog); format: in vitro ADME; conditions: amount of substrate remaining; 1 μM, 0.25 mg/mL microsomes, 37° C., 30 minutes
Summary of the method: (§1)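 Compound at 1 μM with microsomes (0.25 mg/mL each species) in 0.1 M phosphate buffer pH 7.4, preincubated 5 min at 37 °C, then 30 min at 37 °C after NADPH-generating system addition. Quenched with acetonitrile plus internal standard; remaining substrate measured by LC-MS/MS.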

CYP2C19 = molecular target: T1, CYP2C19 (Homo sapiens, UniProt P33261); experiment: Inhibition of CYP coenzyme activity in human liver microsomes; format: in vitro ADME; conditions: compound 10 PM (so in the source); human liver microsomes 0.25 mg/mL; substrate S-mephenytoin; 15 minutes
T1 construct: human liver microsomes (0.25 mg/mL); from tissue; host or cells: human liver microsomes
Summary of the method: (§2)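 Human liver microsomes (0.25 mg/mL) in 0.1 M phosphate pH 7.4 with a substrate cocktail (phenacetin 50 μM, diclofenac 10 μM, S-mephenytoin 100 μM, dextromethorphan 5 μM, midazolam 2.5 μM) and compound at 0 or 10 μM. Preincubated 5 min at 37 °C, then 15 min with NADPH system. Metabolites quantified by LC-MS/MS (MRM).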

CYP2D6 = molecular target: T2, CYP2D6 (Homo sapiens, UniProt P10635); experiment: as above; format: in vitro ADME; conditions: compound 10 PM (so in the source); human liver microsomes 0.25 mg/mL; substrate dextromethorphan; 15 minutes
T2 construct: human liver microsomes (0.25 mg/mL); from tissue; host or cells: human liver microsomes
Summary of the method: as §2

CYP2C9 = molecular target: T3, CYP2C9 (Homo sapiens, UniProt P11712); experiment: as above; format: in vitro ADME; conditions: compound 10 PM (so in the source); human liver microsomes 0.25 mg/mL; substrate diclofenac; 15 minutes
T3 construct: human liver microsomes (0.25 mg/mL); from tissue; host or cells: human liver microsomes
Summary of the method: as §2

CYP1A2 = molecular target: T4, CYP1A2 (Homo sapiens, UniProt P05177); experiment: as above; format: in vitro ADME; conditions: compound 10 PM (so in the source); human liver microsomes 0.25 mg/mL; substrate phenacetin; 15 minutes
T4 construct: human liver microsomes (0.25 mg/mL); from tissue; host or cells: human liver microsomes
T4 sequence (P05177 1-516): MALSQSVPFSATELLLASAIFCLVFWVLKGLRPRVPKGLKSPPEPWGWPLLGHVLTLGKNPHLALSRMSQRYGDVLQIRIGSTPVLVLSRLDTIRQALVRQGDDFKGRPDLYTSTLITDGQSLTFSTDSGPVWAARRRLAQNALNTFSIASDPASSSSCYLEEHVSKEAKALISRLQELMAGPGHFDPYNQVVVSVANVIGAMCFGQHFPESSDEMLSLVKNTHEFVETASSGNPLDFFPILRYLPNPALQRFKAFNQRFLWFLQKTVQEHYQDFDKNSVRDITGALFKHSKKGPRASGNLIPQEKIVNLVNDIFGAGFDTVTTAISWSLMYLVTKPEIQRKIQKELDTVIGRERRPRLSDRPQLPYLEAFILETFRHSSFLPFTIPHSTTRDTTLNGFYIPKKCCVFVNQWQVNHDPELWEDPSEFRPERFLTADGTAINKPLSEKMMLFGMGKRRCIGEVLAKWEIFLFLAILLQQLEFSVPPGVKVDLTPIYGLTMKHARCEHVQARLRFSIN
Summary of the method: as §2

Tau-BiFC cells = experiment: Cytotoxicity (cell survival rate) in tau-BiFC cells; conditions: group treated with Forskolin alone = 100%
Summary of the method: (§3)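 Tau-BiFC cells co-treated 48 h with Forskolin ([…]) and compound at 0.03–30 μM. BiFC fluorescence quantified by imaging, IC50 by nonlinear regression; cytotoxicity as Hoechst-stained nuclei count relative to Forskolin-only wells (100% survival).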

[2] = Liver microsomal stability (rat); format: in vitro ADME; conditions: amount of substrate remaining; 1 μM, 0.25 mg/mL microsomes, 37° C., 30 minutes
Summary of the method: as §1

CYP3A4 = molecular target: T5, CYP3A4 (Homo sapiens, UniProt P08684); experiment: Inhibition of CYP coenzyme activity in human liver microsomes; format: in vitro ADME; set-up: scale not given here; conditions: compound 10 PM (so in the source); human liver microsomes 0.25 mg/mL; substrate midazolam; 15 minutes
T5 construct: human liver microsomes (0.25 mg/mL); from tissue; host or cells: human liver microsomes
Summary of the method: as §2

[3] = Liver microsomal stability (human); format: in vitro ADME; conditions: amount of substrate remaining; 1 μM, 0.25 mg/mL microsomes, 37° C., 30 minutes
Summary of the method: as §1

tau protein = molecular target: T6, tau protein (Homo sapiens, UniProt P10636); experiment: Tau protein aggregation inhibition in tau-BiFC cell model; format: cell-based; conditions: tau-BiFC cells treated together with Forskolin, 48 hours
T6 construct: expressed in transfected cells
Summary of the method: as §3

[4] = Liver microsomal stability (mouse); format: in vitro ADME; conditions: amount of substrate remaining; 1 μM, 0.25 mg/mL microsomes, 37° C., 30 minutes
Summary of the method: as §1

T6 sequence (P10636 2-441 isoform P10636-8 limits assumed): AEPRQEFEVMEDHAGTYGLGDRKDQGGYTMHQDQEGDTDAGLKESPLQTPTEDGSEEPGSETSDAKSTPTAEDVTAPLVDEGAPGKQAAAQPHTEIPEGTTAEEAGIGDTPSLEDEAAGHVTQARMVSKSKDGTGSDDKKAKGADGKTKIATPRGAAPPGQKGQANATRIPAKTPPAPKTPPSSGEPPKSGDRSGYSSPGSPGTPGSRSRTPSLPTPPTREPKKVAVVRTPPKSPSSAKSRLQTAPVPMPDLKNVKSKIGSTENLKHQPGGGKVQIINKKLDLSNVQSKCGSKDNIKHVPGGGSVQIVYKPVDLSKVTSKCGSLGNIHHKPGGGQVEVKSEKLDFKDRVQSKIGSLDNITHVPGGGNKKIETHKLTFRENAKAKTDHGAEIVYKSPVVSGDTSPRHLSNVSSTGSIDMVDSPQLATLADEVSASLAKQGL
T3 sequence (P11712 whole entry): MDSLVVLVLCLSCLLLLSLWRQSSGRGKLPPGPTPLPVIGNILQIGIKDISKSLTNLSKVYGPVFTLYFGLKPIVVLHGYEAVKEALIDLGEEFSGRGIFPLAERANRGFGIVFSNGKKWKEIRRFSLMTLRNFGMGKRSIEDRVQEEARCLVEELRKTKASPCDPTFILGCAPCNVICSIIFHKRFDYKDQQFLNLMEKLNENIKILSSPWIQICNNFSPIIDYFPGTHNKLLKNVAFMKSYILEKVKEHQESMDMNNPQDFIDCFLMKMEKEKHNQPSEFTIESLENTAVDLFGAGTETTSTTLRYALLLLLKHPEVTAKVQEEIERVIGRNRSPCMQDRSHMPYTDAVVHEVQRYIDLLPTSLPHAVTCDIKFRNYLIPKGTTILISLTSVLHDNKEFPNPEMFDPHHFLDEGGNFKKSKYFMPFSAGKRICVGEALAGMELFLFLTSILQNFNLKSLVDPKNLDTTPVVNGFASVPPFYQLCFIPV
T1 sequence (P33261 whole entry): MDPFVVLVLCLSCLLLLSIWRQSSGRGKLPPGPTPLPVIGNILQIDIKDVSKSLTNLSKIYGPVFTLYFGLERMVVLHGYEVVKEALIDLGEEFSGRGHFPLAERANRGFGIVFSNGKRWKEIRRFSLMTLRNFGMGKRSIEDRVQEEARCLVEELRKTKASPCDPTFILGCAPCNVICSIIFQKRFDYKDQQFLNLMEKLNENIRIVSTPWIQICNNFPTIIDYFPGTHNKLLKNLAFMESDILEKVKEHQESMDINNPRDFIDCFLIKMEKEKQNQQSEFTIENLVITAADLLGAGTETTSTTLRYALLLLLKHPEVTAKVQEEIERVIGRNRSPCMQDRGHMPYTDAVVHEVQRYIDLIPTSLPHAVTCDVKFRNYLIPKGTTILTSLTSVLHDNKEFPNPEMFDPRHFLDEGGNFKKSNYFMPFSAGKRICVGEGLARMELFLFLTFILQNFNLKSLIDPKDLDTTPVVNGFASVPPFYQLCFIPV
T2 sequence (P10635 whole entry): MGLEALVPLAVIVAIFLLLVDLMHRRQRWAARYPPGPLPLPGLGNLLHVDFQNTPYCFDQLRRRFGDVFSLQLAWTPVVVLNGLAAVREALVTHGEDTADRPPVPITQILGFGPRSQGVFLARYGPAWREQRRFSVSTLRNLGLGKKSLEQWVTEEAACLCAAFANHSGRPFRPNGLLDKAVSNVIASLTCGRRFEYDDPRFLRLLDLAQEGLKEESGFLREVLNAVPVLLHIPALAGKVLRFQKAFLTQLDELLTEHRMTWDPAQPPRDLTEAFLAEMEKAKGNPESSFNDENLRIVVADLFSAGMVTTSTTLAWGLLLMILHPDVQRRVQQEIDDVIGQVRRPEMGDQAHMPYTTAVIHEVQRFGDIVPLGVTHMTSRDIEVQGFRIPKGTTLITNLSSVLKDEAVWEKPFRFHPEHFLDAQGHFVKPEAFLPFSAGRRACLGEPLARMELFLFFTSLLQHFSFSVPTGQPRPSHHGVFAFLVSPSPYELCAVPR
T5 sequence (P08684 whole entry): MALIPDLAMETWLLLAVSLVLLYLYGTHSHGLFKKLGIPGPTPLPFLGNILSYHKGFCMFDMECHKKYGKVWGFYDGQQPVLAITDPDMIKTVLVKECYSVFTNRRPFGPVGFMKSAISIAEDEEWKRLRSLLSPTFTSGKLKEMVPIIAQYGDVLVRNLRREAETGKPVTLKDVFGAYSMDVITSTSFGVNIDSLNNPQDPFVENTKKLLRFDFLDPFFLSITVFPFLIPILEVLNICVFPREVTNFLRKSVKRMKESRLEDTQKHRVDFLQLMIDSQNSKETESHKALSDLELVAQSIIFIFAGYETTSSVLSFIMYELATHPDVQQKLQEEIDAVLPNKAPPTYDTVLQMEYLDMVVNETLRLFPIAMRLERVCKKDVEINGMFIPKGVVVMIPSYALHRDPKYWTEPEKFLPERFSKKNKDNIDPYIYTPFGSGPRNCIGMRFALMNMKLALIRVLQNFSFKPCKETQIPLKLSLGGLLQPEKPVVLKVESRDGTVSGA

SMILES | liver microsomal stability, Dog (%) [1] [%] | inhibition effects of CYP coenzyme activity, CYP2C19 (CYP2C19) | inhibition effects of CYP coenzyme activity, CYP2D6 (CYP2D6) | inhibition effects of CYP coenzyme activity, CYP2C9 (CYP2C9) | inhibition effects of CYP coenzyme activity, CYP1A2 (CYP1A2) | Cell survival rate (% @ 10 μM) (Tau-BiFC cells) [%] | liver microsomal stability, Rat (%) [2] [%] | inhibition effects of CYP coenzyme activity, CYP3A4 (CYP3A4) | liver microsomal stability, Human (%) [3] [%] | IC50 (tau protein) [µM] | liver microsomal stability, Mouse (%) [4] [%]
N#CC(C#N)=NNc1ccc2nc(NC(=O)c3cnccn3)sc2c1 [Compound 92, (2-(pyrazine-2-carboxamido)benzo[d]thiazol-6-yl)carbonohydrazonoyl dicyanide] | 74.7 | 90.5 | 99.1 | 46.8 | 64.1 | 119.5 | 72.7 | 85.5 | 74.6 | 0.24 | 51.9
Cc1cncc(-c2nc3ccc(NN=C(C#N)C#N)cc3s2)c1 [Compound 110, (2-(5-methylpyridin-3-yl)benzo[d]thiazol-6-yl)carbonohydrazonoyl dicyanide] | 60.2 | 51.3 | 70.8 | 60.2 | 55 | 74.6 | 51.3 | 55 | 55 | 0.76 | 70.8
CN(C)c1ccc(-c2ccc(NN=C(C#N)C#N)cc2)cc1 [Compound 151, (4′-(dimethylamino)biphenyl-4-yl)carbohydrazonoyl dicyanide] | 83.6 | 85.2 | 94.6 | 83.6 | 94.4 | 69.5 | 85.2 | 94.4 | 94.4 | 0.65 | 94.6
